Reference: patent US7645882B2, “Inhibitor of protein modification products formation” (priority 2003, dated 2010)

Tests used:
[1] = Solubility test at different pH; type: physicochemical; settings: for condition of the solution: 10 mg per 1 ml purified water
Experimental: TM-2002 was added in purified water to be 10 mg per 1 ml and added hydrochloride to adjust to pH 2.0 and solved. Then, this solution was adjusted to pH 7.0, 8.0 and 2,0 (unadjust) by 1N sodium hydrate to prepare 3 solutions. These solutions were put on warming, dark cold place and after 24 hours, conditions of the solutions were observed. […] As the result, stable TM-2002 injectable formulation in its solubility may be prepared by keeping acidic condition using inorganic acid such as hydrochloride, sulfuric acid, or various organic acid, or by using TM-2002 hydrochloride or sulfate as material which is made from said acids.

ORP150 = test: ER stress inducing molecule expression in RIN-5F cells, western blot, ORP150; type: cell-based, rat; settings: TM-2002 200 μM, 50 μM and tunicamycin co-added
Experimental: (§1) Rat pancreatic β cell line (RIN-5F) was seeded in 6 well culture plate to 1.0×10^5 cells/well, and after 24 hours, TM-2002 in DMSO (200 mM, 50 mM) were added to be final concentration 200 μM, 50 μM. After another 1 hour, 0.2 μl of tunicamycin (Sigma) in methanol(1 mg/ml) was added. After culturing 8 hours, the cells were washed 2 ml of PBS(+) twice, and the cells were dissolved in 100 μl of lysate (50 mM Tris-HCl (pH 7.5), 150 mM NaCl, 100 mM NaF, 100 mM sodium phosphate (pH 7.4), 2 mM Na3VO4, 0.1% protease inhibitor cocktail (Sigma), 1% Triton X-100). To remove the insoluble fraction of this lysate, centrifuged at 12,000×g for 10 minutes and obtained the supernatant to give cell extract. The extract was quantified its protein concentration using DC protein assay kit (Bio Rad), and each samples (1 μg) was electrophoresed by SDS-PAGE and transferred to PVDF membrane. The membrane was blocked with 5% skimmed milk/0.1% Tween20-TBS for 1 hour at room temperature, and reacted with anti-ORP150 antibody in 5% skimmed milk/0.1% Tween20-TBS (2000 folds: specific antibody), anti-GRP78 antibody (Santa Cruz) in 5% skimmed milk/0.1% Tween20-TBS (100 folds) and anti-actin antibody (Sigma) in 5% skimmed milk/0.1% Tween20-TBS (200 folds) for 2 hours. […] The detected signal was analyzed by Lane analyzer (ATTO) and calculated the signal strength. […]

GRP78 = test: ER stress inducing molecule expression in RIN-5F cells, western blot, GRP78; type: cell-based, rat; settings: TM-2002 200 μM, 50 μM and tunicamycin co-added
Experimental: as §1

SHR/NDmcr-cp rat = test: Renal protecting effect in SHR/NDmcr-cp rat; type: in vivo; settings: 33 weeks aged, 20 weeks administration; TM-2002 50 mg/kg in diet, olmesartane 3 mg/kg oral
Source text: Renal protecting effect was observed using SHR/NDmcr-cp (Disease Model Cooperative Research Association) rat, which had been known their high blood pressure, hyperglycemia, hyperlipemia, obesity and hyperinsulinemia and renal function disorder while aging.
SHR/NDmcr-cp rat and Wistar Kyoto rat (Disease Model Cooperative Research Association) of 9 weeks aged were conformed for 3 weeks and measured their body weight and blood collection before administration. One group contain five rats (body weight 440 g±32 g). After division, excipient (negative control), positive control compound and test compound were administered 20 weeks. Carboxymethylcellulose (carboxymethyl cellulose Na/ Wako) solution as excipient and olmesartane, which is one of the angiotensin II receptor antagonist and has renal protective effect, as positive control compound were used to examine the effect of TM-2002 (test compound). The dosage of olmesartane was 3 mg per 1 kg of body weight and that of TM-2002 was 50 mg per 1 kg of body weight. Olmesartane was prepared by suspending or solving the designed amount in 1.0 ml of 0.5% carboxymethylcellulose solution or purified water, and TM-2002 was prepared by mixing the designed amount in 30 g of diet (for one day). Since the increase of body weight of test animals was remarkable, the amount of positive control compound and test compound was modified depending on the result of body weight measuring (every week). […] While administration period, body weight was measured every week, and blood collection, urine collection and blood pressure measuring were done every 2 weeks before 4 weeks aged and every 4 weeks after 5 weeks aged. Blood collection was carried out after warming to 38° C. by warming plate from caudal vein for 800 μl (heparin treatment: the amount of heparin was determined by ratio 15 μl to 1 ml of blood). […] The volume of daily urine was measured when urine was collected. The blood pressure was determined with by the tail-cuff method blood pressure measure (Softron). […]

With `Cc1ncc2c(c1O)C(c1c(C)nn(-c3ccccc3)c1O)OC2` (stereo not drawn) [compound 68, 1-(5-hydroxy-3-methyl-1-phenyl-1H-pyrazol-4-yl)-6-methyl-1,3-dihydro-furo[3,4-c]pyridin-7-ol] the “condition of the solution” value ([1]; pH 2.0, after 24 hours) was “kept clear solution”, the “condition of the solution” value ([1]; pH 7.0, after 24 hours) was “observed precipitate” and the “condition of the solution” value ([1]; pH 8.0, after 24 hours) was “observed precipitate”. The “change of color of the solution” value ([1]; pH 7.0 and pH 8.0 solutions, after 24 hours) was “the change of color was shown”, the “hyperexpression of ORP150” value (ORP150) was “suppressed” and the “hyperexpression of GRP78” value (GRP78) was “suppressed”. The blood pressure (SHR/NDmcr-cp rat) was “without blood pressure lowering”, the “renal function / renal protective effect” value (SHR/NDmcr-cp rat) was “excellent renal protective effect” and the urinary protein (SHR/NDmcr-cp rat) was “urinary protein is suppressed remarkably”.
